Laboratory results published in patent publication EP4711371A1 (priority 2023, dated 2024).
Where two headings read alike, the source gives them in different places.

Tests used:
Type in all cases: cell-based
T47D [1] = experiment: cells; settings: Homo sapiens, 120 h, read-out: T47D IC50
Protocol: (§1) Test Example 2 In vitro proliferation inhibition assay of the camptothecin derivatives (Payload) of the present invention on tumor cells 1. Instruments and Reagents
(§2) 2. Experimental Procedure • a. Plating & culture: MDA-MB-453 (purchased from: Xiehe, catalog number: 1101HUM-PUMCO00016)/T47D (Kebai, CBP60397)/HT1376 cells (purchased from: Kebai, catalog number: CBP60310) were cultured into 96-well plates by a density of 1×10^3 /2×10^3 /1×10^3 cells per100 µL, and 200 µL of PBS was added to the outermost circle (to reduce the volatilization of the culture medium), and cultured at 37°C, 5% CO2 incubator for 24 h; • b. Drug Addition & Incubation: The 96-well flat-bottom plate was retrieved. The culture medium in the wells was aspirated, and 100 µL of the ADC drug/payload (diluted in culture medium) was added to each well. The plate was then incubated at 37°C, 5% CO2 incubator for 5 days. 3. Detection and data processing • a. The 96-well plate was retrieved. The culture medium was removed, and 100 µL of detection reagent (CCK8:medium= 1:9) was added to each well. The plate was then placed in a 37°C, 5% CO2 incubator for 4 hours; • b. The optical density (OD) at 450 nm was measured using a microplate reader (model: CEY0017), and the data was recorded with Excel. • c. Graphpad Prism 9.0 was used to analyze and organize the data.

HT1376 = experiment: In vitro proliferation inhibition assay of camptothecin derivatives (Payload), Test Example 2; settings: Homo sapiens, HT-1376, 120 h, read-out: HT1376 IC50
Protocol: as §1, §2

MDA-MB-453 [2] = experiment: as above; settings: Homo sapiens, MDA-MB-453, 120 h, read-out: MDA-MB-453 IC50
Protocol: as §1, §2

T47D [3] = experiment: cells; settings: Homo sapiens, 96 h, payload, cultured 4 days, CCK-8, read-out: T47D IC50
Source text: (§3) The control compounds used in the experiment were DXD (synthesized from EXD according to the synthesis method of patent EP2907824B1. EXD was purchased from MedChemExpress, catalog number: HY-13631A) and SN38 (purchased from Bide Pharmatech, catalog number BD8481). Their structural formulas are [drawing 515] respectively.
(§4) The cell lines used in this experiment were human breast cancer cells SK-BR-3, T47D, MDA-MB-453, human malignant melanoma cells A375, human lung squamous carcinoma cells NCI-H1703, and human gastric cancer cells NCI-N87. Cell suspensions were prepared in fresh cell culture medium containing 10% FBS and then diluted to a density of 5 × 10^4 cells/mL, 10×10^4 cells/mL, 100 µL per well was added to a 96-well cell culture plate (Thermo catalog number: 167425), and cultured at 37°C with 5% carbon dioxide for 24 h.
(§5) The test compounds of the present invention and the control compounds were each prepared to 10 mM stock solutions in DMSO, and the drugs were diluted with 5% FBS 1640 culture medium in a gradient of 50, 10, 2, 0.4, 0.08, 0.016, 0.0032, 0.00064, 0.000128, and 0 µM, with two replicates for each well.
(§6) 50 µL of cell supernatant was pipetted from each 96-well plate, followed by the addition of 50 µL of compound dilutions at final […] of 25, 5, 1, 0.2, 0.04, 0.008, 0.0016, 0.00032, 0.000064, and 0 µM. After mixing, the cells were cultured in a constant temperature CO2 incubator for 4 days. Cell supernatant was then added with 100 µL of detection reagent (5% FBS1640 medium and CCK-8 solution in a 10:1 ratio) and incubated in an incubator for 4 hours. […] was read on a microplate reader (TECAN, Spark), and data were analyzed using Graphpad Prism 8 software.

MDA-MB-453 [4] = experiment: In vitro proliferation inhibition assay of camptothecin derivatives (Payload), Test Example 1; settings: Homo sapiens, MDA-MB-453, 96 h; payload, cultured 4 days, CCK-8; read-out: MDA-MB-453 IC50
Source text: as §3, §4, §5, §6

[5] = payload, incubated 5 days, CCK8, OD 450 nm

SMILES | IC50 (T47D [1]) | IC50 (HT1376) | IC50 (MDA-MB-453 [2]) | IC50 (T47D [1]; [5]) | IC50 (HT1376; [5]) | IC50 (MDA-MB-453 [2]; [5]) | IC50 (T47D [3]) | IC50 (MDA-MB-453 [4])
CC[C@@]1(O)C(=O)OCc2c1cc1n(c2=S)Cc2c-1nc1cc(F)c(C)cc1c2CNC(=S)CO [Compound 26] | < 0.003 nM | 0.014 nM | 1 nM | – | – | – | – | –
CC[C@@]1(O)C(=O)OCc2c1cc1n(c2=S)Cc2c-1nc1cc3c(cc1c2CNC(=S)CO)OCCO3 [Compound 39] | 0.047 nM | 8.69 nM | 0.482 nM | – | – | – | – | –
CC[C@@]1(O)C(=O)OCc2c1cc1n(c2=S)Cc2c-1nc1cc(F)c(C)cc1c2CNC(=O)[C@@H](C)O [Compound 23] | 0.117 nM | 5.94 nM | 0.343 nM | – | – | – | – | –
CC[C@@]1(O)C(=O)OCc2c1cc1n(c2=S)Cc2c-1nc1cc(F)c(OC)cc1c2CNC(=O)CO [Compound 31] | 0.142 nM | 19.5 nM | 0.337 nM | – | – | – | – | –
CC[C@@]1(O)C(=O)OCc2c1cc1n(c2=S)Cc2c-1nc1cc(Cl)c(C)cc1c2CN [Compound 14] | 0.25 nM | 13.8 nM | 5.23 nM | – | – | – | – | –
CC[C@@]1(O)C(=O)OCc2c1cc1n(c2=S)Cc2c-1nc1cc(F)c(C)cc1c2CNC(=O)[C@H](C)O [Compound 22] | 0.116 nM | 5.38 nM | 0.362 nM | – | – | – | – | –
CC[C@@]1(OC(=O)Cn2cc(F)c(=O)[nH]c2=O)C(=O)OCc2c1cc1n(c2=S)Cc2c-1nc1cc(F)c(C)cc1c2CNC(=O)CO [Compound 25] | – | – | – | 2.6 nM | 8.39 nM | 103 nM | – | –
CC[C@@]1(O)C(=O)OCc2c1cc1n(c2=S)Cc2c-1nc1cc(F)c(C)cc1c2CNC(=O)[C@@H](O)C1CC1 [Compound 19] | 0.268 nM | 9.36 nM | 1.01 nM | – | – | – | – | –
CC[C@@]1(O)C(=O)OCc2c1cc1n(c2=S)Cc2c-1nc1cc(Cl)c(C)cc1c2CNC(=O)[C@H](C)O [Example 43] | 0.089 nM | 9.94 nM | 1.64 nM | – | – | – | – | –
CC[C@@]1(O)C(=O)OCc2c1cc1n(c2=S)Cc2c-1nc1cc(F)c(F)cc1c2CNC(=O)[C@H](C)O [Example 45] | 2.79 nM | 3.79 nM | 4.97 nM | – | – | – | – | –
CC[C@@]1(O)C(=O)OCc2c1cc1n(c2=S)Cc2c-1nc1cc3c(cc1c2CNC(=O)[C@H](C)O)OCCO3 [Compound 40] | 0.053 nM | 18.2 nM | 0.021 nM | – | – | – | – | –
CC[C@@]1(O)C(=O)OCc2c1cc1n(c2=S)Cc2c-1nc1cc3c(cc1c2CNC(=O)[C@@H](C)O)OCCO3 [Compound 41] | 0.231 nM | 24.1 nM | 0.943 nM | – | – | – | – | –
CC[C@@]1(O)C(=O)OCc2c1cc1n(c2=S)Cc2c-1nc1cc(F)c(OC)cc1c2CNC(=O)[C@H](C)O [Compound 32] | 0.089 nM | 15.3 nM | 0.417 nM | – | – | – | – | –
CCC1(O)CC(=O)OCc2c1cc1n(c2=O)Cc2c-1nc1cc(F)c(C)cc1c2CCCCO (centres unmarked) [Example 48] | – | – | – | – | – | – | 0.832 nM | 17.7 nM
CC[C@@]1(O)C(=O)OCc2c1cc1n(c2=S)Cc2c-1nc1cc(F)c(C)cc1c2CNC(=O)[C@H](O)C1CC1 [Compound 20] | 0.245 nM | 0.917 nM | 8.06 nM | – | – | – | – | –
CC[C@@]1(O)C(=O)OCc2c1cc1n(c2=S)Cc2c-1nc1cc(F)c(C)cc1c2CNC(=O)[C@H]1C[C@@H](O)C1 [Compound 21] | 0.108 nM | 11.6 nM | 0.294 nM | – | – | – | – | –
CC[C@@]1(O)C(=O)OCc2c1cc1n(c2=S)Cc2c-1nc1cc(Cl)c(C)cc1c2CNC(=O)[C@H]1C[C@@H](O)C1 [Example 42] | 0.845 nM | 40.2 nM | 4.18 nM | – | – | – | – | –
CC[C@@]1(O)C(=O)OCc2c1cc1n(c2=S)Cc2c-1nc1cc(F)c(OC)cc1c2CNC(=O)[C@@H](C)O [Compound 34] | 0.151 nM | 10.1 nM | 0.652 nM | – | – | – | – | –

SMILES | IC50 (T47D [1]) | IC50 (HT1376) | IC50 (MDA-MB-453 [2]) | IC50 (T47D [1]; [5]) | IC50 (HT1376; [5]) | IC50 (MDA-MB-453 [2]; [5]) | IC50 (T47D [3]) | IC50 (MDA-MB-453 [4])
CC[C@@]1(O)C(=O)OCc2c1cc1n(c2=S)Cc2c-1nc1cc(F)c(C)cc1c2CNC(=O)C1CCC(O)C1 (some centres unmarked) [Compound 28] | 0.15 nM | 42.4 nM | 6.17 nM | – | – | – | – | –
[2H]C([2H])(O)C(=O)NCc1c2c(nc3cc(F)c(C)cc13)-c1cc3c(c(=S)n1C2)COC(=O)[C@]3(O)CC [Compound 29] | 0.014 nM | 5.98 nM | 0.183 nM | – | – | – | – | –
CC[C@@]1(O)C(=O)OCc2c1cc1n(c2=S)Cc2c-1nc1cc(F)c(OC)cc1c2CNC(=O)OCCO [Compound 33] | 0.392 nM | 45.4 nM | 0.599 nM | – | – | – | – | –
CC[C@@]1(O)C(=O)OCc2c1cc1n(c2=S)Cc2c-1nc1cc3c(cc1c2CNC(=O)OCCO)OCCO3 [Compound 37] | 0.054 nM | 13.5 nM | 0.013 nM | – | – | – | – | –
CC[C@@]1(O)C(=O)OCc2c1cc1n(c2=S)Cc2c-1nc1cc(F)c(OC)cc1c2CNC(=O)[C@H]1C[C@@H](O)C1 [Compound 30] | 0.391 nM | 66.7 nM | 1.01 nM | – | – | – | – | –
CC[C@@]1(O)C(=O)OCc2c1cc1n(c2=S)Cc2c-1nc1cc3c(cc1c2CNC(=O)CO)OCCO3 [Compound 36] | 0.119 nM | 10.3 nM | 0.029 nM | – | – | – | – | –
CC[C@@]1(O)C(=O)OCc2c1cc1n(c2=S)Cc2c-1nc1cc(F)c(F)cc1c2CN [Compound 15] | 0.157 nM | 9.76 nM | 1.1 nM | – | – | – | – | –
CC[C@@]1(O)C(=O)OCc2c1cc1n(c2=S)Cc2c-1nc1cc(F)c(C)cc1c2CNCCO [Compound 27] | 0.152 nM | 2.5 nM | 0.17 nM | – | – | – | – | –
CC[C@@]1(O)C(=O)OCc2c1cc1n(c2=S)Cc2c-1nc1cc(F)c(F)cc1c2CNC(=O)[C@H]1C[C@@H](O)C1 [Example 44] | 0.195 nM | 5.05 nM | 0.674 nM | – | – | – | – | –
CC[C@@]1(O)C(=O)OCc2c1cc1n(c2=S)Cc2c-1nc1cc(F)c(C)cc1c2[C@@H](C)N [Compound 16] | 0.141 nM | 3.87 nM | 0.481 nM | – | – | – | – | –
CC[C@@]1(OC(=O)Cn2cc(F)c(=O)[nH]c2=O)C(=O)OCc2c1cc1n(c2=S)Cc2c-1nc1cc(F)c(C)cc1c2CN [Compound 24] | – | – | – | 3.6 nM | 25.4 nM | 78.4 nM | – | –
CCC1(O)CC(=O)OCc2c1cc1n(c2=O)Cc2c-1nc1cc(F)c(C)cc1c2CN (centres unmarked) [Example 47] | – | – | – | – | – | – | 0.956 nM | 4.37 nM
CC[C@@]1(O)C(=O)OCc2c1cc1n(c2=S)Cc2c-1nc1cc3c(cc1c2CNC(=O)[C@H]1C[C@@H](O)C1)OCCO3 [Compound 38] | 0.234 nM | 38.4 nM | 0.121 nM | – | – | – | – | –
CC[C@@]1(O)C(=O)OCc2c1cc1n(c2=S)Cc2c-1nc1cc(F)c(OC)cc1c2CN [Compound 12] | 0.093 nM | 1.97 nM | 0.312 nM | – | – | – | – | –
CCC1(O)CC(=O)OCc2c1cc1n(c2=O)Cc2c-1nc1cc(F)c(F)cc1c2CN (centres unmarked) [Example 49] | – | – | – | – | – | – | 11 nM | 24.5 nM
CC[C@@]1(O)C(=O)OCc2c1cc1n(c2=S)Cc2c-1nc1cc3c(cc1c2CN)OCCO3 [Compound 13] | 0.059 nM | 10.9 nM | 0.797 nM | – | – | – | – | –
CC[C@@]1(O)C(=O)OCc2c1cc1n(c2=S)Cc2c-1nc1cc(F)c(OC)cc1c2CNC(=S)CO [Compound 35] | – | 4.94 nM | ~1.22 nM | – | – | – | – | –
